This is an account of results in PubChem BioAssay AID274 (DTP/NCI, 2004).

SMILES strings stand for the structures. Several values for one entry are separate records, joined by “and”; a condition that tells them apart may be missing. Equal entries are not always repeated. Toxic doses and inconclusive results are not listed.

This test deals with BDF1 mice, Lewis lung carcinoma iv, survival T/C. Nature of the test: NCI In Vivo Anticancer Drug Screen. Data for tumor model Lewis Lung Carcinoma (intravenous) in B6D2F1 (BDF1) mice. To be noted: endpoint: median survival time, higher = longer survival. Here is the method:
The antitumor activity of compounds was measured in mice bearing transplantable tumors. Survival or tumor size were measured and the results are expressed as the measurement made in the treated group (T) divided by the measurement made in the vehicle treated control group (C). The tumor model used in this assay is Lewis Lung Carcinoma (intravenous) in B6D2F1 (BDF1) mice

The mark [1] stands for this setting: dose: 25.0 mg/kg/injection, schedule: Q01DX009 (ip), vehicle: saline with Tween-80.
[2] abbreviates: dose: 50.0 mg/kg/injection, schedule: Q01DX009 (ip), vehicle: saline with Tween-80.
Where [3] appears, read: dose: 100.0 mg/kg/injection, schedule: Q01DX009 (ip), vehicle: saline with Tween-80.
[4] abbreviates: dose: 12.5 mg/kg/injection, schedule: Q01DX009 (ip), vehicle: saline.
Setting [5] is: dose: 25.0 mg/kg/injection, schedule: Q01DX009 (ip), vehicle: saline.
[6] abbreviates: dose: 50.0 mg/kg/injection, schedule: Q01DX009 (ip), vehicle: saline.
Setting [7] is: dose: 100.0 mg/kg/injection, schedule: Q01DX009 (ip), vehicle: saline.
Where [8] appears, read: dose: 200.0 mg/kg/injection, schedule: Q01DX009 (ip), vehicle: saline.
The mark [9] stands for this setting: dose: 12.5 mg/kg/injection, schedule: Q01DX009 (ip), vehicle: saline with Tween-80.
Setting [10] is: dose: 200.0 mg/kg/injection, schedule: Q01DX009 (ip), vehicle: saline with Tween-80.
The mark [11] stands for this setting: dose: 400.0 mg/kg/injection, schedule: Q01DX009 (ip), vehicle: saline with Tween-80.
Where [12] appears, read: dose: 6.25 mg/kg/injection, schedule: Q01DX009 (ip), vehicle: saline with Tween-80.
[13] abbreviates: dose: 4.0 mg/kg/injection, schedule: Q01DX009 (ip), vehicle: saline with Tween-80.
[14] abbreviates: dose: 8.0 mg/kg/injection, schedule: Q01DX009 (ip), vehicle: saline with Tween-80.

Take `CCC1(O)CC2CN(CCc3c([nH]c4ccccc34)C(C(=O)OC)(c3cc4c(cc3OC)N(C)C3C(O)(C(N)=O)C(O)C5(CC)C=CCN6CCC43C65)C2)C1` (stereo not given) (tested in a mixture with another compound): the T/C (dose: 0.6 mg/kg/injection, schedule: Q04DX003 (ip), vehicle: saline) was 106 % of control; the T/C (dose: 1.0 mg/kg/injection, schedule: Q04DX003 (ip), vehicle: saline) was 111 % of control; the T/C (dose: 1.67 mg/kg/injection, schedule: Q04DX003 (ip), vehicle: saline) is 97 % of control; the T/C (dose: 216.0 micrograms/kg/injection, schedule: Q01DX009 (ip), vehicle: saline) is 93 % of control; the T/C (dose: 360.0 micrograms/kg/injection, schedule: Q01DX009 (ip), vehicle: saline) is 97 % of control.
Turning to `Nc1ccc2ccc(O)cc2c1`, the T/C reads like this: under setting [1], 100 % of control; under setting [2], 99 % of control; under setting [3], 91 % of control.
Consider `O=C1NC(O)CCN1C1OC(CO)C(O)C1O` (stereo not given), for which the T/C under setting [4] was 110 % of control; the T/C under setting [5] was 100 % of control; the T/C under setting [6] was 118 % of control; the T/C under setting [7] is 118 % of control; the T/C under setting [8] is 98 % of control; the T/C (dose: 400.0 mg/kg/injection, schedule: Q01DX009 (ip), vehicle: saline) was 102 % of control. For the same compound, where the note is “dose: 800.0 mg/kg/injection, schedule: Q01DX009 (ip), vehicle: saline”, the T/C was 101 % of control.
As to `CC(C)C(N)C(=O)Nc1nncs1` (stereo not given), the T/C reads like this: under setting [4], 104 % of control; under setting [5], 106 % of control; under setting [6], 106 % of control; under setting [7], 115 % of control; under setting [8], 95 % of control.
For the compound `Nc1nc(/C=C(/O)c2ccccc2)c2ncn(C3OC(CO)C(O)C3O)c2n1` (stereo not given), the T/C under setting [4] is 109 % of control, the T/C under setting [5] was 107 % of control, the T/C under setting [6] was 102 % of control and the T/C under setting [7] is 104 % of control.
Consider `ClC1(c2ccccc2)c2ccc(Br)cc2-c2cc(Br)ccc21`, for which the T/C was 102 % of control under setting [1], 105 % of control under setting [2] and 110 % of control under setting [3].
With `O=[n+]1c2c(n([O-])c3ccccc31)-c1cccc3cccc-2c13`, the T/C runs as follows: under setting [1], 100 % of control; under setting [2], 104 % of control; under setting [3], 105 % of control.
As to `Cc1cc2nc(Cc3nc4cc(C)c(C)cc4[nH]3)[nH]c2cc1C`, the T/C runs as follows: under setting [9], 95 % of control; under setting [1], 109 % of control; under setting [2], 97 % of control and 104 % of control; under setting [3], 100 % of control.
Consider `Cc1ccc(S(=O)(=O)NC(=O)OC23COCN2COC3)cc1`, for which the T/C under setting [9] is 98 % of control; the T/C under setting [1] is 105 % of control; the T/C under setting [2] is 96 % of control; the T/C under setting [3] was 98 % of control; the T/C under setting [10] was 98 % of control; the T/C under setting [11] is 101 % of control.
As for `Cc1cc(N(CC(C)Br)CC(C)Br)ccc1N=Nc1ccccc1C(=O)O` (stereo not given), the T/C by setting is: under setting [12], 117 % of control; under setting [9], 114 % of control.
With `Nc1nc([Se])c2ncn(C3OC(CO)C(O)C3O)c2n1` (stereo not given), the T/C is, setting by setting: (dose: 2.0 mg/kg/injection, schedule: Q01DX009 (ip), vehicle: saline) 96 % of control; (dose: 4.0 mg/kg/injection, schedule: Q01DX009 (ip), vehicle: saline) 99 % of control; (dose: 8.0 mg/kg/injection, schedule: Q01DX009 (ip), vehicle: saline) 118 % of control.
Consider `COC(=O)c1cc2cc3c(c(O)c2c(=O)o1)OC1(Cc2c(O)c4c(c(O)c2O1)C(=O)C(OC)CC4=O)CC3O` (stereo not given), for which the T/C was 102 % of control (dose: 3.13 mg/kg/injection, schedule: Q01DX009 (ip), vehicle: saline with Tween-80); 110 % of control under setting [12]; 122 % of control under setting [9]; 120 % of control under setting [1].
Consider `C=C1C(=O)OCC1(C(=O)OCC)C(=O)OCC`, for which the T/C runs as follows: under setting [13], 114 % of control; under setting [14], 120 % of control.
For the compound `N=C(N)c1ccc(/C=C/c2ccc(C(=N)N)cc2O)cc1`, the T/C (dose: 3.12 mg/kg/injection, schedule: Q01DX009 (ip), vehicle: water) is 96 % of control; the T/C (dose: 6.25 mg/kg/injection, schedule: Q01DX009 (ip), vehicle: water) is 101 % of control; the T/C (dose: 12.5 mg/kg/injection, schedule: Q01DX009 (ip), vehicle: water) is 101 % of control; the T/C (dose: 25.0 mg/kg/injection, schedule: Q01DX009 (ip), vehicle: water) was 111 % of control; the T/C (dose: 50.0 mg/kg/injection, schedule: Q01DX009 (ip), vehicle: water) is 115 % of control.
On to `c1ccc(CN2CCOC2)cc1`, for which the T/C is, setting by setting: under setting [4], 96 % of control; under setting [5], 107 % of control; under setting [6], 116 % of control; under setting [7], 99 % of control.
On to `O=S(=O)(O)O`, for which the T/C was 91 % of control (dose: 1.0 mg/kg/injection, schedule: Q01DX009 (ip), vehicle: saline with Tween-80); 86 % of control (dose: 2.0 mg/kg/injection, schedule: Q01DX009 (ip), vehicle: saline with Tween-80); 86 % of control under setting [13]; 97 % of control under setting [14].
Consider `O=[N+]([O-])c1ccc(-n2[nH]nnc2=S)cc1`, for which the T/C under setting [9] is 92 % of control; the T/C under setting [1] was 101 % of control; the T/C under setting [2] was 92 % of control; the T/C under setting [3] was 92 % of control; the T/C under setting [10] is 93 % of control.
As to `C[N+](C)(C)c1ncnc2nc[nH]c12`, the T/C reads like this: under setting [6], 103 % of control; under setting [7], 100 % of control; under setting [8], 103 % of control.
Turning to `CC1=CC(=NN=c2cc(C)n([O-])c(C)c2)C=C(C)[N+]1=O`, the T/C by setting is: under setting [9], 102 % of control; under setting [1], 100 % of control; under setting [2], 104 % of control; under setting [3], 105 % of control; under setting [10], 86 % of control.
For `Cc1cc(O)c(C(C)C)cc1S(=O)(=O)O` (tested in a mixture with another compound), the T/C (dose: 100.0 mg/kg/injection, schedule: Q01DX009 (ip), vehicle: Klucel (hydroxypropylcellulose) (HPC)) is 90 % of control and the T/C (dose: 200.0 mg/kg/injection, schedule: Q01DX009 (ip), vehicle: Klucel (hydroxypropylcellulose) (HPC)) is 102 % of control.
`CN1C(=O)C(=Cc2ccc(O)cc2)C(=O)N(C)C1=O`: the T/C by setting is: under setting [9], 101 % of control; under setting [1], 105 % of control; under setting [2], 106 % of control; under setting [3], 99 % of control; under setting [10], 101 % of control; under setting [11], 96 % of control.
For `CC(C)C(=O)OCC1OC(n2cnc3c(=S)nc(N)[nH]c32)C(OC(=O)C(C)C)C1OC(=O)C(C)C` (stereo not given), the T/C runs as follows: (dose: 3.12 mg/kg/injection, schedule: Q01DX009 (ip), vehicle: Klucel (hydroxypropylcellulose) (HPC)) 97 % of control; (dose: 6.25 mg/kg/injection, schedule: Q01DX009 (ip), vehicle: Klucel (hydroxypropylcellulose) (HPC)) 90 % of control.
Consider `O=C(O)CP(=O)(O)O`, for which the T/C under setting [6] is 96 % of control, the T/C under setting [7] is 96 % of control and the T/C under setting [8] is 152 % of control.
`CC1=C(/C=C/C(C)=C/C=C/C(C)=C/CO)C(C)(C)CCC1`: the T/C (dose: 4.0 mg/kg/injection, schedule: Q01DX005 (ip), vehicle: saline with Tween-80) is 95 % of control; the T/C (dose: 8.0 mg/kg/injection, schedule: Q01DX005 (ip), vehicle: saline with Tween-80) was 95 % of control; the T/C (dose: 16.0 mg/kg/injection, schedule: Q01DX005 (ip), vehicle: saline with Tween-80) is 95 % of control; the T/C (dose: 32.0 mg/kg/injection, schedule: Q01DX005 (ip), vehicle: saline with Tween-80) was 102 % of control; the T/C (dose: 64.0 mg/kg/injection, schedule: Q01DX005 (ip), vehicle: saline with Tween-80) was 102 % of control; the T/C (dose: 128.0 mg/kg/injection, schedule: Q01DX005 (ip), vehicle: saline with Tween-80) is 98 % of control.
For `COP12(OCCO1)SC(C(F)(F)F)=C(C(F)(F)F)S2`, the T/C is 106 % of control under setting [12], 105 % of control under setting [9], 98 % of control under setting [1] and 95 % of control under setting [2].
